Measurements from patent US8961937B2 (Korea Atomic Energy Research Institute, priority 2012, dated 2015).
“Also recorded” adds a separate entry of the source.

Key:
Aβ40 aggregates [1] = target: T1, Aβ40 aggregates (Homo sapiens, UniProt P05067); assay: In vitro fluorescence measurement before and after mixing with agglomerated Aβ40 peptide; type: binding; conditions: for λem: emission wavelength; for λem / λex: 10 μM in PBS; for λex: excitation wavelength; for Fold Increase (FAβ/F0): fluorescence emission intensity at λem, 10 μM compound and 10 μM Aβ40 aggregates
T1 construct: agglomerated Aβ40 peptide (10 μM, 35° C., agglomerated in PBS buffer for 3 days.)
T1 sequence (P05067 672-711 limits assumed): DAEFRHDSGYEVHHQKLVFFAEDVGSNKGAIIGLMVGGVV

[2] = target: T2, intracellular Aβ aggregates of a SHSY5Y neuroblastoma cell (Homo sapiens, UniProt P05067); assay: Fluorescence imaging of intracellular Aβ aggregates in SHSY5Y cell extract; type: cell-based; conditions: for fluorescent staining of extract of Aβ42-added SHSY5Y cells: cell cultured with unlabelled Aβ42, sonicated with SDS, homogenate reacted with 10 μM probe for 10 minutes; for fluorescent staining of extract of SHSY5Y cells grown without Aβ: culture without Aβ42 (negative control tissue)
T2 construct: a cell having unlabelled Aβ42 added thereto was sonicated with SDS; host or cells: exogenous peptide added to the SHSY5Y neuroblastoma cell culture
T2 sequence (P05067 672-713 limits assumed): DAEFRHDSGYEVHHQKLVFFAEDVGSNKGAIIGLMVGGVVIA
Procedure: Fluorescence imaging of compound 14 was performed on intracellular Aβ aggregates of a SHSY5Y neuroblastoma cell. In order to measure intracellular uptake and aggregation of Aβ, 1 μM of Aβ42 (FITC-Aβ42) labelled with fluorescein isothiocyanate was added, and SHSY5Y cell was cultivated 3 days and imaged with fluorescence microscope. […] The conventional research reported that, after extracellular soluble Aβ is taken up, Aβ42 aggregates (>200 kDa) having a high molecular weight is formed. In order to determine whether the compound 14 is used as a fluorescence probe component for detecting intracellular Aβ aggregates, a cell having unlabelled Aβ42 added thereto was sonicated with SDS, and the homogenate was reacted with 10 μM of compound 14 for 10 minutes.

[3] = system: Aβ aggregates of brain tissues of an AD mouse; assay: Fluorescence staining of brain sections of transgenic AD mouse (APP/PS1); conditions: for staining of Aβ aggregates in brain section of transgenic AD mouse: 15-month aged APP/PS1 mouse brain section; for staining of brain tissue of control group mouse: control group mouse brain section
Procedure: In order to evaluate whether 2-styrylpyridazine-3(2H)-one-based compound 14 can stain beta amyloid aggregates of brain tissues of an AD mouse, compound 14 was tested in a brain section of an 15-month aged transgenic AD mouse (APP/PS 1) model.

Aβ40 aggregates [4] = target: T1, Aβ40 aggregates; assay: Apparent binding constant (Kd) by fluorescence titration with aggregated Aβ40 peptide; conditions: 10 μM aggregated Aβ40 peptide, PBS, N = 3; read-out: Kd (mean ± SD)
Procedure: Apparent binding constants (Kd) of the nine compounds were measured by using 10 μM aggregated Aβ40 peptide. Fluorescence intensity of respective probes of […], 0.5, 1, […], 5, and 10 μM dissolved in PBS and fluorescence intensity of a mixture with aggregates Aβ peptide were measured. […] Theoretically, a preferable fluorescence probe for Aβ aggregates should have high fluorescence reactivity and binding affinity.

| SMILES | λem (Aβ40 aggregates [1]) | λex (Aβ40 aggregates [1]) | Fold Increase (FAβ/F0) (Aβ40 aggregates [1]) | fluorescent staining of extract of SHSY5Y cells grown without Aβ [2] | Kd (Aβ40 aggregates [4]) | fluorescent staining of extract of Aβ42-added SHSY5Y cells [2] | staining of Aβ aggregates in brain section of transgenic AD mouse [3] | staining of brain tissue of control group mouse [3] |
| --- | --- | --- | --- | --- | --- | --- | --- | --- |
| O=c1c(Cl)c(Cl)cnn1/C=C/c1ccccc1 [Compound 1, trans-4,5-dichloro-2-styrylpyridazine-3(2H)-one] | 496 nm | 350 nm | 4.72 |  |  |  |  |  |
| O=c1c(Cl)c(Cl)cnn1/C=C/c1ccc(F)cc1 [Compound 2, (E)-4,5-dichloro-2-(4-fluorostyryl)pyridazine-3(2H)-one] | 492 nm | 350 nm | 5.93 |  |  |  |  |  |
| O=c1c(Cl)c(Cl)cnn1/C=C/c1ccc(Cl)cc1 [Compound 3, (E)-4,5-dichloro-2-(4-chlorostyryl)pyridazine-3(2H)-one] | 495 nm | 380 nm | 3.03 |  |  |  |  |  |
| O=c1c(Cl)c(Cl)cnn1/C=C/c1ccc(Br)cc1 [Compound 4, (E)-2-(4-bromostyryl)-4,5-dichloropyridazine-3(2H)-one] | 495 nm | 370 nm | 2.12 |  |  |  |  |  |
| O=c1c(Cl)c(Cl)cnn1/C=C/c1ccc(I)cc1 [Compound 5, (E)-4,5-dichloro-2-(4-Iodostyryl)pyridazine-3(2H)-one] | 498 nm | 380 nm | 5.26 |  |  |  |  |  |
| N#Cc1ccc(/C=C/n2ncc(Cl)c(Cl)c2=O)cc1 [Compound 6, (E)-2-(4-cyanostyryl)-4,5-dichloropyridazine-3(2H)-one] | 486 nm | 380 nm | 2.94 |  |  |  |  |  |
| COC(=O)c1ccc(/C=C/n2ncc(Cl)c(Cl)c2=O)cc1 [Compound 7, (E)-4,5-dichloro-2-(4-methoxycarbonylstyryl)pyridazine-3(2H)-one] | 488 nm | 370 nm | 2.07 |  |  |  |  |  |
| O=c1c(Cl)c(Cl)cnn1/C=C/c1ccccc1[N+](=O)[O-] [Compound 8, (E)-4,5-dichloro-2-(2-nitrostyryl)pyridazine-3(2H)-one] | 500 nm | 370 nm | 4.12 |  |  |  |  |  |
| Cc1ccc(/C=C/n2ncc(Cl)c(Cl)c2=O)cc1 [Compound 11, (E)-4,5-dichloro-2-(4-methylstyryl)pyridazine-3(2H)-one] | 516 nm | 350 nm | 2.81 |  |  |  |  |  |
| O=c1c(Cl)c(Cl)cnn1/C=C/c1ccc(/C=C/c2ccccc2)cc1 [Compound 13, 4,5-dichloro-2-((E)-4-(E)-styrylstyryl)pyridazine-3(2H)-one] | 510 nm | 380 nm | 2.04 |  |  |  |  |  |
| CN(C)c1ccc(/C=C/n2ncc(Cl)c(Cl)c2=O)cc1 [Compound 14] | 636 nm | 430 nm | 40.84 | did not have fluorescent staining | 1.84 µM | Fluorescence precipitate was obtained; also recorded: clearly stained | clearly stained | not stained |
| COc1ccccc1/C=C/n1ncc(Cl)c(Cl)c1=O [Compound 16, (E)-4,5-dichloro-2-(2-methoxystyryl)pyridazine-3(2H)-one] | 492 nm | 380 nm | 8.24 |  |  |  |  |  |
| COc1cccc(/C=C/n2ncc(Cl)c(Cl)c2=O)c1 [Compound 17, (E)-4,5-dichloro-2-(3-methoxystyryl)pyridazine-3(2H)-one] | 492 nm | 350 nm | 11.13 |  | 3.48 ± 1.14 µM |  |  |  |
| COc1ccc(/C=C/n2ncc(Cl)c(Cl)c2=O)cc1 [Compound 18, (E)-4,5-dichloro-2-(4-methoxystyryl)pyridazine-3(2H)-one] | 532 nm | 400 nm | 19.81 |  | 2.57 ± 0.54 µM |  |  |  |
| COc1cccc(/C=C/n2ncc(Cl)c(Cl)c2=O)c1OC [Compound 19, (E)-4,5-dichloro-2-(2,3-dimethoxystyryl)pyridazine-3(2H)-one] | 504 nm | 350 nm | 15.35 |  | 8.52 ± 2.48 µM |  |  |  |
| COc1ccc(/C=C/n2ncc(Cl)c(Cl)c2=O)cc1OC [Compound 23, (E)-4,5-dichloro-2-(3,4-dimethoxystyryl)pyridazine-3(2H)-one] | 552 nm | 350 nm | 3.52 |  |  |  |  |  |
| COc1cc(/C=C/n2ncc(Cl)c(Cl)c2=O)cc(OC)c1 [Compound 24, (E)-4,5-dichloro-2-(3,5-dimethoxystyryl)pyridazine-3(2H)-one] | 492 nm | 350 nm | 5.37 |  |  |  |  |  |
| COc1cc(OC)c(/C=C/n2ncc(Cl)c(Cl)c2=O)c(OC)c1 [Compound 27, (E)-4,5-dichloro-2-(2,4,6-trimethoxystyryl)pyridazine-3(2H)-one] | 560 nm | 430 nm | 11.72 |  | 17.5 ± 2.49 µM |  |  |  |
| COc1cc(/C=C/n2ncc(Cl)c(Cl)c2=O)cc(OC)c1OC [Compound 28] | 580 nm | 390 nm | 26.12 |  | 4.14 ± 1.94 µM |  |  |  |
| Cc1ccc2c(c1)sc(-c1ccc(N(C)C)cc1)[n+]2C.[Cl-] [thio-flavine T, reference compound] |  |  |  | did not have fluorescent staining |  | labelled pattern was identical to a pattern observed by using thio-flavine T | stained | not stained |

The next lines start with results.

| λem (Aβ40 aggregates [1]) | λex (Aβ40 aggregates [1]) | Fold Increase (FAβ/F0) (Aβ40 aggregates [1]) | fluorescent staining of extract of SHSY5Y cells grown without Aβ [2] | Kd (Aβ40 aggregates [4]) | SMILES | fluorescent staining of extract of Aβ42-added SHSY5Y cells [2] | staining of Aβ aggregates in brain section of transgenic AD mouse [3] | staining of brain tissue of control group mouse [3] |
| --- | --- | --- | --- | --- | --- | --- | --- | --- |
| 485 nm | 390 nm | 2.12 |  |  | O=c1c(Cl)c(Cl)cnn1/C=C/c1cccc([N+](=O)[O-])c1 [Compound 9, (E)-4,5-dichloro-2-(3-nitrostyryl)pyridazine-3(2H)-one] |  |  |  |
| 515 nm | 390 nm | 2.24 |  |  | O=c1c(Cl)c(Cl)cnn1/C=C/c1ccc([N+](=O)[O-])cc1 [Compound 10, (E)-4,5-dichloro-2-(4-nitrostyryl)pyridazine-3(2H)-one] |  |  |  |
| 514 nm | 380 nm | 1.92 |  |  | O=c1c(Cl)c(Cl)cnn1/C=C/c1ccc(-c2ccccc2)cc1 [Compound 12, (E)-2-(2-(biphenyl-4-yl)vinyl)-4,5-dichloropyridazine-3(2H)-one] |  |  |  |
| 598 nm | 400 nm | 12.15 |  | 2.95 ± 1.15 µM | Nc1ccc(/C=C/n2ncc(Cl)c(Cl)c2=O)cc1 [Compound 15, (E)-4,5-dichloro-2-(4-aminostyryl)pyridazine-3(2H)-one] |  |  |  |
| 554 nm | 400 nm | 11.52 |  | 5.03 ± 3.48 µM | COc1ccc(/C=C/n2ncc(Cl)c(Cl)c2=O)c(OC)c1 [Compound 20, (E)-4,5-dichloro-2-(2,4-dimethoxystyryl)pyridazine-3(2H)-one] |  |  |  |
| 512 nm | 370 nm | 3.42 |  |  | COc1ccc(OC)c(/C=C/n2ncc(Cl)c(Cl)c2=O)c1 [Compound 21, (E)-4,5-dichloro-2-(2,5-dimethoxystyryl)pyridazine-3(2H)-one] |  |  |  |
| 545 nm | 350 nm | 4.53 |  |  | COc1cccc(OC)c1/C=C/n1ncc(Cl)c(Cl)c1=O [Compound 22, (E)-4,5-dichloro-2-(2,6-dimethoxystyryl)pyridazine-3(2H)-one] |  |  |  |
| 536 nm | 390 nm | 26.81 |  | 4.24 ± 0.98 µM | COc1ccc(/C=C/n2ncc(Cl)c(Cl)c2=O)c(OC)c1OC [Compound 25, (E)-4,5-dichloro-2-(2,3,4-trimethoxystyryl)pyridazine-3(2H)-one] |  |  |  |
| 542 nm | 350 nm | 3.95 |  |  | COc1cc(OC)c(OC)cc1/C=C/n1ncc(Cl)c(Cl)c1=O [Compound 26, (E)-4,5-dichloro-2-(2,4,5-trimethoxystyryl)pyridazine-3(2H)-one] |  |  |  |
